Test results as given in the kinase profiling compilation of Christmann-Franck et al. (2016).
Several values for one entry are separate records, joined by “and”; a condition that tells them apart may be missing. Equal entries are not always repeated.

Assays:
Experiment in all cases: radiometric filter-binding kinase assay, Kinase HotSpot
Conditions in all cases: compound 0.5 µM; ATP 10 µM
[1] = target: MAPKAPK2 (human) (UniProt P49137)
[2] = target: RPS6KA2 KD1 KD2 (human) (UniProt Q15349)
[3] = target: CDK2 CCNA2 (human) (UniProt P24941+P20248)
[4] = target: CLK2 (human) (UniProt P49760)
[5] = target: DMPK (human) (UniProt Q09013)
[6] = target: DYRK3 (human) (UniProt O43781)
[7] = target: PAK4 (human) (UniProt O96013)
[8] = target: PRKCB2 (human) (UniProt P05771)
[9] = target: AKT2 (human) (UniProt P31751)
Chain of AKT2 (human) (P31751 whole entry, looked up): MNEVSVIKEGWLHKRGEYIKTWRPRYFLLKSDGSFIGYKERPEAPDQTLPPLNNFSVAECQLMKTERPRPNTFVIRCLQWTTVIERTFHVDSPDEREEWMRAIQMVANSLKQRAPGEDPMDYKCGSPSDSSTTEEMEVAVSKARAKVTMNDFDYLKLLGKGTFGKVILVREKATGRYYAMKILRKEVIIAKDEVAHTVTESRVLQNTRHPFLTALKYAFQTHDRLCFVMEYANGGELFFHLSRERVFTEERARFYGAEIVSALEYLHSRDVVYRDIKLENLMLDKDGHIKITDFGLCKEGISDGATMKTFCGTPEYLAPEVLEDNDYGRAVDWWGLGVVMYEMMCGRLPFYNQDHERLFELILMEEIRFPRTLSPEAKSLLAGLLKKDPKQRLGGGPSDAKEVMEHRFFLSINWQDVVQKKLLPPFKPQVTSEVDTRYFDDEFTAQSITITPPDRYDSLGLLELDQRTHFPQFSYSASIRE

[10] = target: MAPKAPK3 (human) (UniProt Q16644)
[11] = target: CSNK1G3 (human) (UniProt Q9Y6M4)
[12] = target: NEK7 (human) (UniProt Q8TDX7)
Chain of NEK7 (human) (Q8TDX7 whole entry, looked up): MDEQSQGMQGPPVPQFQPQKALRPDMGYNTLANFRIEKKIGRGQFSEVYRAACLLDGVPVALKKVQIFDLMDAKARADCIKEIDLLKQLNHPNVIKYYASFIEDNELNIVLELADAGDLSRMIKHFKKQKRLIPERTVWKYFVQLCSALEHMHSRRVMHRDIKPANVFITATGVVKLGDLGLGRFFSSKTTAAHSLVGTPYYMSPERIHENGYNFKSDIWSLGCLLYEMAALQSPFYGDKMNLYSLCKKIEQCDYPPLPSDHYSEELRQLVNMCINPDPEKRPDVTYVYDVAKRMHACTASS

[13] = target: EPHA3 (human) (UniProt P29320)
[14] = target: ROCK1 (human) (UniProt Q13464)
[15] = target: IKBKE (human) (UniProt Q14164)
[16] = target: PLK2 (human) (UniProt Q9NYY3)
[17] = target: MUSK (human) (UniProt O15146)
[18] = target: MAP3K11 (human) (UniProt Q16584)
Chain of MAP3K11 (human) (Q16584 whole entry, looked up): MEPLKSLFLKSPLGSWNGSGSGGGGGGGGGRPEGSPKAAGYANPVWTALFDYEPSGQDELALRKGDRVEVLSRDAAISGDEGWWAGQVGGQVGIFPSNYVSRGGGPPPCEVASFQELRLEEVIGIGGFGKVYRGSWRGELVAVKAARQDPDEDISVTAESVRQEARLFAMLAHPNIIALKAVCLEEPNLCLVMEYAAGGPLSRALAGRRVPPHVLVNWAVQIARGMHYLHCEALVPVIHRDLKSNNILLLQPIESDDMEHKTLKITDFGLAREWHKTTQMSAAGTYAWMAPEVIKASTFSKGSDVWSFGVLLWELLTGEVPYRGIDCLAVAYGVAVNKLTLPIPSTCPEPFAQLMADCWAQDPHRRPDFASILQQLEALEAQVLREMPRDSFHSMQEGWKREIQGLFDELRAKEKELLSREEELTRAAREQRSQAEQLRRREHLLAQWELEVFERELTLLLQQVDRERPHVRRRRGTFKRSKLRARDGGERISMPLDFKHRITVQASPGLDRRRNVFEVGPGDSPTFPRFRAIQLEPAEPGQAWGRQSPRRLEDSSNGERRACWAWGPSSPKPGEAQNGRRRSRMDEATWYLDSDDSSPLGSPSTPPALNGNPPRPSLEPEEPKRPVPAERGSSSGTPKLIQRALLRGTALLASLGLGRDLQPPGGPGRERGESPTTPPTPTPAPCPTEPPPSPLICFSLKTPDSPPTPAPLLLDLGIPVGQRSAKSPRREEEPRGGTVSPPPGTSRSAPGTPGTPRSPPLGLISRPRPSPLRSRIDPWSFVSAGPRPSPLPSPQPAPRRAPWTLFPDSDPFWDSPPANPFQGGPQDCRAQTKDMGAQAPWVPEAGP

[19] = target: PAK3 (human) (UniProt O75914)
[20] = target: TSSK1B (human) (UniProt Q9BXA7)
[21] = target: LYN (human) (UniProt P07948)
[22] = target: MKNK2 (human) (UniProt Q9HBH9)
[23] = target: LCK (human) (UniProt P06239)
[24] = target: SRC (human) (UniProt P12931)
[25] = target: CSNK2A2 (human) (UniProt P19784)
[26] = target: MELK (human) (UniProt Q14680)
[27] = target: DSTYK (human) (UniProt Q6XUX3)
[28] = target: ERBB2 (human) (UniProt P04626)
[29] = target: PASK (human) (UniProt Q96RG2)
[30] = target: MINK1 (human) (UniProt Q8N4C8)
[31] = target: NUAK1 (human) (UniProt O60285)
Chain of NUAK1 (human) (O60285 whole entry, looked up): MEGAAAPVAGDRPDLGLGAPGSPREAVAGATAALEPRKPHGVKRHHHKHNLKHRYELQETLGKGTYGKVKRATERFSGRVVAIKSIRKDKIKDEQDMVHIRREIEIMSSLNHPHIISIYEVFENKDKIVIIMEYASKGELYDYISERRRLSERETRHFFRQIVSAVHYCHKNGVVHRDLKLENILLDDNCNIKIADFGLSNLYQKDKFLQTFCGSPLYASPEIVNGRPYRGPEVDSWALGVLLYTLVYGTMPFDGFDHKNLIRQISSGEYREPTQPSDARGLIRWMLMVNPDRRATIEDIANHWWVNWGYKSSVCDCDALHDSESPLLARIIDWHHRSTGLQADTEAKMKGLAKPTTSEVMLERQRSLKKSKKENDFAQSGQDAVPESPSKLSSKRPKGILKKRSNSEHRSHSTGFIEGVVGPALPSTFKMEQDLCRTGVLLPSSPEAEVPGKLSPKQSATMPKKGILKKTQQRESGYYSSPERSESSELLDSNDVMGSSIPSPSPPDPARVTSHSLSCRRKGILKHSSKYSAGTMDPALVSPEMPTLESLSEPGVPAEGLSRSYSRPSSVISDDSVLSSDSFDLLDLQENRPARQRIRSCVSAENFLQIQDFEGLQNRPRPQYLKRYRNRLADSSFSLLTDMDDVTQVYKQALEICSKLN

[32] = target: VRK1 (human) (UniProt Q99986)
Chain of VRK1 (human) (Q99986 whole entry, looked up): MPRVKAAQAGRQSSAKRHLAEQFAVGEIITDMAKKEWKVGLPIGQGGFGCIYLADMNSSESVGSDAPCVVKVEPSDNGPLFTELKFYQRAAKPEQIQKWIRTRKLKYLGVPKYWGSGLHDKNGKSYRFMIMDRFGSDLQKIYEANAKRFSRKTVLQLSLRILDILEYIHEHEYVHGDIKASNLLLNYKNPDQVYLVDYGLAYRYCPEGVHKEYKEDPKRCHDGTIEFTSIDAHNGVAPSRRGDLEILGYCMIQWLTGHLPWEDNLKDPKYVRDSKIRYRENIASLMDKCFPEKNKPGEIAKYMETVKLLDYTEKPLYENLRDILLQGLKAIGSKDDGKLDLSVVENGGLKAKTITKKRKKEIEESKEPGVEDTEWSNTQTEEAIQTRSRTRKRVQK

[33] = target: CDK1 CCNA2 (human) (UniProt P06493+P20248)
[34] = target: HCK (human) (UniProt P08631)
[35] = target: HIPK3 (human) (UniProt Q9H422)
[36] = target: TBK1 (human) (UniProt Q9UHD2)
Chain of TBK1 (human) (Q9UHD2 whole entry, looked up): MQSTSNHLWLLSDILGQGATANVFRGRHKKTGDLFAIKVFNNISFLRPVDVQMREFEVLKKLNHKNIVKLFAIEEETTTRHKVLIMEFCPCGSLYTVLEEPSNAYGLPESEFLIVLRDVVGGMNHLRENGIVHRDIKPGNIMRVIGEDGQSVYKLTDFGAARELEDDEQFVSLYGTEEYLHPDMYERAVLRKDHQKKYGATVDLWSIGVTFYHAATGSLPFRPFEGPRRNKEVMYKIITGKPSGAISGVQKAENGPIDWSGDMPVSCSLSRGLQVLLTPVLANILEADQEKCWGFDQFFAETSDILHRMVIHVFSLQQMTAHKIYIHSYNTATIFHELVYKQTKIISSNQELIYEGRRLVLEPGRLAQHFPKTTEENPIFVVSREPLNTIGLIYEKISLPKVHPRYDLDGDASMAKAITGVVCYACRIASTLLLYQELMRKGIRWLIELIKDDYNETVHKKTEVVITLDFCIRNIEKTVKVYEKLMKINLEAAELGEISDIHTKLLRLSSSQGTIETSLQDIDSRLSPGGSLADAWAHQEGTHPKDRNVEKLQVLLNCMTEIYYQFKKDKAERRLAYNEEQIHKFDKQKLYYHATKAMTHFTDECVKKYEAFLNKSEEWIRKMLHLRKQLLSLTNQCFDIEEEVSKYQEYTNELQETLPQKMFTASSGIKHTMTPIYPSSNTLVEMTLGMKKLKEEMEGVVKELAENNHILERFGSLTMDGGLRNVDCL

[37] = target: NTRK3 (human) (UniProt Q16288)
Chain of NTRK3 (human) (Q16288 whole entry, looked up): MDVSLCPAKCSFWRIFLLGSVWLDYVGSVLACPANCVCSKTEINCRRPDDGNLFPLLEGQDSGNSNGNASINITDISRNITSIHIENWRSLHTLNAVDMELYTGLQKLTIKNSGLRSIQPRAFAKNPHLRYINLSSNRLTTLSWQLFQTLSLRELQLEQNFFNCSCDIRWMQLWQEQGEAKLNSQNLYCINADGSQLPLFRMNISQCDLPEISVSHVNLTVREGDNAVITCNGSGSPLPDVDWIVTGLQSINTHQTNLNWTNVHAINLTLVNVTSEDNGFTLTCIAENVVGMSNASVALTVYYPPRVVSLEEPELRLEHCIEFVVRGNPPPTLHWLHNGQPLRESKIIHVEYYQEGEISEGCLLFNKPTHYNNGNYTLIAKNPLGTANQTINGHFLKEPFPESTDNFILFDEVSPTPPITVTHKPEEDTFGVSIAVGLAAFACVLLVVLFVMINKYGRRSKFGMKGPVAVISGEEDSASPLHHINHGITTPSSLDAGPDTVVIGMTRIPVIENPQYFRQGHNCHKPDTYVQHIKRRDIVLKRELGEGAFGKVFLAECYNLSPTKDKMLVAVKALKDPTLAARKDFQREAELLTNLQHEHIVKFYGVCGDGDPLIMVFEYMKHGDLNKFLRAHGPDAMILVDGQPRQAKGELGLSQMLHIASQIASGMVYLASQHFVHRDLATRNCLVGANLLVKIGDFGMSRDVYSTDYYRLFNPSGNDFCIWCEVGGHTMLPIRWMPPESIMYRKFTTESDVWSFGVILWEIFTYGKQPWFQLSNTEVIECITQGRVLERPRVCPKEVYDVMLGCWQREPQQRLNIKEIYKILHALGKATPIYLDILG

[38] = target: TSSK2 (human) (UniProt Q96PF2)
[39] = target: NEK3 (human) (UniProt P51956)
[40] = target: BRSK2 (human) (UniProt Q8IWQ3)
[41] = target: CSK (human) (UniProt P41240)
[42] = target: INSR (human) (UniProt P06213)

Chain of RPS6KA2 KD1 KD2 (human) (Q15349 whole entry, looked up): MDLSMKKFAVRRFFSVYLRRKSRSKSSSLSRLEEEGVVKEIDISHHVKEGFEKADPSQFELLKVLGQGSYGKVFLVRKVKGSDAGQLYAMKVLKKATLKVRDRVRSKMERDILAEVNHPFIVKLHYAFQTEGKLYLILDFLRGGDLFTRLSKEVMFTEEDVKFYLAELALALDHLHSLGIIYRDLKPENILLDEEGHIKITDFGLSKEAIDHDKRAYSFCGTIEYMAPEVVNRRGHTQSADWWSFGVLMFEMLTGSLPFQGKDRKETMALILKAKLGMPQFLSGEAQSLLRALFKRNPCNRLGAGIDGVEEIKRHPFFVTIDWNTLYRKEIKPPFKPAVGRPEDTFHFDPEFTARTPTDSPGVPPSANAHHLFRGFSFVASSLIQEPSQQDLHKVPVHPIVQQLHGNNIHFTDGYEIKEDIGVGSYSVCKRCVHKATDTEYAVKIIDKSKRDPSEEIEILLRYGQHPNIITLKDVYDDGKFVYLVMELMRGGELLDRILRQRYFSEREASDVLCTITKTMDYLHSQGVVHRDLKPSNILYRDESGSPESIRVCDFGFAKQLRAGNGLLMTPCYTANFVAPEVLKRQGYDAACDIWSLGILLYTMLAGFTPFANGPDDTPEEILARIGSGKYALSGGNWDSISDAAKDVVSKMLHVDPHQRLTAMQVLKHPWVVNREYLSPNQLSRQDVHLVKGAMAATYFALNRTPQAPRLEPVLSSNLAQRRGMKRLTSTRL

With `Nc1nccc(-c2c(-c3ccc(F)cc3)ncn2C2CCNCC2)n1` the residual activity [1] was 97.6%, the residual activity [2] was 99.3% and the residual activity [3] was 100%. The residual activity [4] was 99.7%, the residual activity [5] was 99.3% and the residual activity [6] was 96%. For the same molecule, the residual activity [7] was 95.1%, the residual activity [8] was 79.4% and the residual activity [9] was 94.8%. The residual activity [10] was 99.4%, the residual activity [11] was 83.9% and the residual activity [12] was 98.9%. The residual activity [13] was 97.4%, the residual activity [14] was 103% and the residual activity [15] was 99.5%. It also gave a residual activity [16] of 93%, a residual activity [17] of 86.9% and a residual activity [18] of 96.3%. For the same molecule, the residual activity [19] was 105%, the residual activity [20] was 106% and the residual activity [21] was 87.5% and 97.5%. It also gave a residual activity [22] of 92.1%, a residual activity [23] of 80.1% and a residual activity [24] of 94.2%. It also gave a residual activity [25] of 92.2%, a residual activity [26] of 100% and a residual activity [27] of 102%. For the same molecule, the residual activity [28] was 93.7%, the residual activity [29] was 98.5% and the residual activity [30] was 96.1%. For the same molecule, the residual activity [31] was 98.4%, the residual activity [32] was 83.4% and the residual activity [33] was 92.7%. For the same molecule, the residual activity [34] was 95.5%, the residual activity [35] was 97.6% and the residual activity [36] was 102%. For the same molecule, the residual activity [37] was 97.1%, the residual activity [38] was 100% and the residual activity [39] was 99%. For the same molecule, the residual activity [40] was 96.6% and the residual activity [41] was 90.8%.

With `Nc1nnc2[nH]c3ccccc3nc1-2` the residual activity [1] was 105%, the residual activity [2] was 89.1% and the residual activity [3] was 86.2%. For the same molecule, the residual activity [4] was 96.1%, the residual activity [5] was 98.4% and the residual activity [6] was 102%. For the same molecule, the residual activity [7] was 104%, the residual activity [8] was 88.5% and the residual activity [9] was 90.1%. The residual activity [10] was 101%, the residual activity [11] was 95.6% and the residual activity [12] was 93.1%. For the same molecule, the residual activity [13] was 95.2%, the residual activity [14] was 99% and the residual activity [15] was 99.4%. It also gave a residual activity [16] of 101%, a residual activity [17] of 82.6% and a residual activity [18] of 96.3%. It also gave a residual activity [42] of 95.3%, a residual activity [19] of 98.3% and a residual activity [20] of 95.4%. The residual activity [21] was 108% and 97%, the residual activity [22] was 89.1% and the residual activity [23] was 93.6%. The residual activity [25] was 94%, the residual activity [26] was 92.9% and the residual activity [27] was 96%. It also gave a residual activity [28] of 95.2%, a residual activity [29] of 93.7% and a residual activity [30] of 97.9%. For the same molecule, the residual activity [31] was 86.3%, the residual activity [32] was 103% and the residual activity [33] was 95.3%. For the same molecule, the residual activity [34] was 98.6%, the residual activity [35] was 97.4% and the residual activity [36] was 92%. It also gave a residual activity [37] of 92.1%, a residual activity [38] of 110% and a residual activity [39] of 94.9%. It also gave a residual activity [40] of 96.5% and a residual activity [41] of 100%.

`CC(C)[C@H](CO)Nc1nc(Nc2cc(N)cc(Cl)c2)c2ncn(C(C)C)c2n1` showed a residual activity [1] of 92.8%, a residual activity [2] of 48.7% and a residual activity [4] of 17.7%. The residual activity [5] was 99.7%, the residual activity [6] was 103% and the residual activity [7] was 102%. For the same molecule, the residual activity [8] was 97.3%, the residual activity [9] was 100% and the residual activity [10] was 98.4%. For the same molecule, the residual activity [11] was 13.4%, the residual activity [12] was 89% and the residual activity [13] was 86.6%. The residual activity [14] was 90%, the residual activity [15] was 88.4% and the residual activity [16] was 92%. It also gave a residual activity [17] of 46%, a residual activity [18] of 17.7% and a residual activity [42] of 85%. It also gave a residual activity [19] of 101%, a residual activity [20] of 91.3% and a residual activity [22] of 113%. The residual activity [23] was 70.2%, the residual activity [24] was 3.75% and the residual activity [25] was 106%. The residual activity [26] was 51.5%, the residual activity [27] was 93.1% and the residual activity [28] was 92.9%. For the same molecule, the residual activity [29] was 106%, the residual activity [30] was 94.5% and the residual activity [31] was 61.5%. For the same molecule, the residual activity [32] was 85.8%, the residual activity [34] was 27.3% and the residual activity [35] was 99.4%. The residual activity [36] was 86.6%, the residual activity [37] was 4.42% and the residual activity [38] was 102%. The residual activity [39] was 100%, the residual activity [40] was 88.2% and the residual activity [41] was 79.3%.
